Test results from ChEMBL document CHEMBL3352489, “6-Hydroxyquinolinium salts differing in the length of alkyl side-chain: synthesis and antimicrobial activity” (Bioorg Med Chem Lett, 2014).

Tests used:
[1] = system: Trichosporon asahii; assay: Fungicidal activity against Trichosporon asahii 1188 after 48 hrs by modified standard CSLI M27-A2 method; assay type: functional; conditions: Trichosporon asahii, 1188, 48 h
[2] = system: Staphylococcus epidermidis; assay: microbe, parasite or virus in culture; assay type: functional; conditions: H 6966/08, 24 h
Description: Antibacterial activity against Staphylococcus epidermidis H 6966/08 after 24 hrs by microdilution broth method

[3] = system: Escherichia coli; assay: Bactericidal activity against Escherichia coli CCM 4517 after 48 hrs by microdilution broth method; assay type: functional; conditions: CCM 4517, 48 h, read-out: MBC>99.9
[4] = system: Enterococcus sp.; assay: microbe, parasite or virus in culture; assay type: functional; conditions: J 14365/08, 48 h
Description: Antibacterial activity against Enterococcus sp. J 14365/08 after 48 hrs by microdilution broth method

[5] = system: Nakaseomyces glabratus; assay: Fungicidal activity against Candida glabrata 20/I after 48 hrs by modified standard CSLI M27-A2 method; assay type: functional
[6] = system: Trichosporon asahii; assay: microbe, parasite or virus in culture; assay type: functional; conditions: Trichosporon asahii, 1188, 48 h
Description: Antifungal activity against Trichosporon asahii 1188 after 48 hrs by modified standard CSLI M27-A2 method

[7] = system: Enterococcus sp.; assay: Bactericidal activity against Enterococcus sp. J 14365/08 after 48 hrs by microdilution broth method; assay type: functional; conditions: J 14365/08, 48 h, read-out: MBC>99.9
[8] = system: Lichtheimia corymbifera; assay: microbe, parasite or virus in culture; assay type: functional; conditions: Lichtheimia corymbifera, 272, 48 h
Description: Antifungal activity against Absidia corymbifera 272 after 48 hrs by modified standard CSLI M27-A2 method

[9] = system: Klebsiella pneumoniae; assay: Bactericidal activity against Klebsiella pneumoniae D 11750/08 after 24 hrs by microdilution broth method; assay type: functional; conditions: D 11750/08, 24 h, read-out: MBC>99.9
[10] = system: Klebsiella pneumoniae; assay: microbe, parasite or virus in culture; assay type: functional; conditions: D 11750/08, 24 h
Description: Antibacterial activity against Klebsiella pneumoniae D 11750/08 after 24 hrs by microdilution broth method

[11] = system: Escherichia coli; assay: microbe, parasite or virus in culture; assay type: functional; conditions: CCM 4517, 24 h
Description: Antibacterial activity against Escherichia coli CCM 4517 after 24 hrs by microdilution broth method

[12] = system: Staphylococcus epidermidis; assay: Bactericidal activity against Staphylococcus epidermidis H 6966/08 after 48 hrs by microdilution broth method; assay type: functional; conditions: H 6966/08, 48 h, read-out: MBC>99.9
[13] = system: Pseudomonas aeruginosa; assay: microbe, parasite or virus in culture; assay type: functional; conditions: CCM 1961, 72 h
Description: Antibacterial activity against Pseudomonas aeruginosa CCM 1961 after 72 hrs by microdilution broth method

[14] = system: Candida albicans; assay: microbe, parasite or virus in culture; assay type: functional; conditions: ATCC 44859, 48 h
Description: Antifungal activity against Candida albicans ATCC 44859 after 48 hrs by modified standard CSLI M27-A2 method

[15] = system: Candida albicans; assay: microbe, parasite or virus in culture; assay type: functional; conditions: ATCC 44859, 24 h
Description: Antifungal activity against Candida albicans ATCC 44859 after 24 hrs by modified standard CSLI M27-A2 method

[16] = Retention time of the compound by isocratic elution based HPLC method; assay type: physicochemical
[17] = Cytotoxicity against CHOK1 cells after 24 hrs by MTT assay; assay type: ADME, cell-based; conditions: Cricetulus griseus, CHO-K1, 24 h
[18] = system: Pichia kudriavzevii; assay: Antifungal activity against Candida krusei E28 after 48 hrs by modified standard CSLI M27-A2 method; assay type: functional; conditions: E28, 48 h
[19] = system: Trichophyton mentagrophytes; assay: microbe, parasite or virus in culture; assay type: functional; conditions: Trichophyton mentagrophytes, 445, 120 h
Description: Antifungal activity against Trichophyton mentagrophytes 445 after 120 hrs by modified standard CSLI M27-A2 method

[20] = system: Candida albicans; assay: Fungicidal activity against Candida albicans ATCC 44859 after 48 hrs by modified standard CSLI M27-A2 method; assay type: functional; conditions: ATCC 44859, 48 h
[21] = system: Staphylococcus aureus; assay: microbe, parasite or virus in culture; assay type: functional; conditions: H 5996/08, 48 h
Description: Antibacterial activity against Staphylococcus aureus H 5996/08 after 48 hrs by microdilution broth method

[22] = system: Pseudomonas aeruginosa; assay: Bactericidal activity against Pseudomonas aeruginosa CCM 1961 after 120 hrs by microdilution broth method; assay type: functional; conditions: CCM 1961, 120 h, read-out: MBC>99.9
[23] = system: Nakaseomyces glabratus; assay: Antifungal activity against Candida glabrata 20/I after 24 hrs by modified standard CSLI M27-A2 method; assay type: functional
[24] = system: Lichtheimia corymbifera; assay: microbe, parasite or virus in culture; assay type: functional; conditions: Lichtheimia corymbifera, 272, 24 h
Description: Antifungal activity against Absidia corymbifera 272 after 24 hrs by modified standard CSLI M27-A2 method

[25] = system: Trichophyton mentagrophytes; assay: Fungicidal activity against Trichophyton mentagrophytes 445 after 120 hrs by modified standard CSLI M27-A2 method; assay type: functional; conditions: Trichophyton mentagrophytes, 445, 120 h
[26] = system: Pseudomonas aeruginosa; assay: microbe, parasite or virus in culture; assay type: functional; conditions: CCM 1961, 120 h
Description: Antibacterial activity against Pseudomonas aeruginosa CCM 1961 after 120 hrs by microdilution broth method

[27] = system: Staphylococcus aureus; assay: Bactericidal activity against Staphylococcus aureus CCM 4516/08 after 48 hrs by microdilution broth method; assay type: functional; conditions: CCM 4516/08, 48 h, read-out: MBC>99.9
[28] = system: Aspergillus fumigatus; assay: microbe, parasite or virus in culture; assay type: functional; conditions: Aspergillus fumigatus, 231, 48 h
Description: Antifungal activity against Aspergillus fumigatus 231 after 48 hrs by modified standard CSLI M27-A2 method

[29] = system: Nakaseomyces glabratus; assay: Antifungal activity against Candida glabrata 20/I after 48 hrs by modified standard CSLI M27-A2 method; assay type: functional
[30] = system: Pichia kudriavzevii; assay: Fungicidal activity against Candida krusei E28 after 48 hrs by modified standard CSLI M27-A2 method; assay type: functional; conditions: E28, 48 h
[31] = system: Klebsiella pneumoniae; assay: microbe, parasite or virus in culture; assay type: functional; conditions: J 14368/08, 24 h
Description: Antibacterial activity against Klebsiella pneumoniae J 14368/08 after 24 hrs by microdilution broth method

[32] = system: Staphylococcus aureus; assay: Bactericidal activity against Staphylococcus aureus H 5996/08 after 48 hrs by microdilution broth method; assay type: functional; conditions: H 5996/08, 48 h, read-out: MBC>99.9
[33] = system: Aspergillus fumigatus; assay: microbe, parasite or virus in culture; assay type: functional; conditions: Aspergillus fumigatus, 231, 24 h
Description: Antifungal activity against Aspergillus fumigatus 231 after 24 hrs by modified standard CSLI M27-A2 method

[34] = system: Trichophyton mentagrophytes; assay: microbe, parasite or virus in culture; assay type: functional; conditions: Trichophyton mentagrophytes, 445, 72 h
Description: Antifungal activity against Trichophyton mentagrophytes 445 after 72 hrs by modified standard CSLI M27-A2 method

[35] = system: Staphylococcus aureus; assay: microbe, parasite or virus in culture; assay type: functional; conditions: CCM 4516/08, 24 h
Description: Antibacterial activity against Staphylococcus aureus CCM 4516/08 after 24 hrs by microdilution broth method

[36] = system: Staphylococcus aureus; assay: microbe, parasite or virus in culture; assay type: functional; conditions: H 5996/08, 24 h
Description: Antibacterial activity against Staphylococcus aureus H 5996/08 after 24 hrs by microdilution broth method

[37] = system: Enterococcus sp.; assay: microbe, parasite or virus in culture; assay type: functional; conditions: J 14365/08, 24 h
Description: Antibacterial activity against Enterococcus sp. J 14365/08 after 24 hrs by microdilution broth method

[38] = system: Staphylococcus epidermidis; assay: microbe, parasite or virus in culture; assay type: functional; conditions: H 6966/08, 48 h
Description: Antibacterial activity against Staphylococcus epidermidis H 6966/08 after 48 hrs by microdilution broth method

[39] = system: Klebsiella pneumoniae; assay: microbe, parasite or virus in culture; assay type: functional; conditions: D 11750/08, 48 h
Description: Antibacterial activity against Klebsiella pneumoniae D 11750/08 after 48 hrs by microdilution broth method

[40] = system: Candida tropicalis; assay: microbe, parasite or virus in culture; assay type: functional; conditions: Candida tropicalis, 156, 48 h
Description: Antifungal activity against Candida tropicalis 156 after 48 hrs by modified standard CSLI M27-A2 method

[41] = system: Pichia kudriavzevii; assay: Antifungal activity against Candida krusei E28 after 24 hrs by modified standard CSLI M27-A2 method; assay type: functional; conditions: E28, 24 h
[42] = system: Trichosporon asahii; assay: microbe, parasite or virus in culture; assay type: functional; conditions: Trichosporon asahii, 1188, 24 h
Description: Antifungal activity against Trichosporon asahii 1188 after 24 hrs by modified standard CSLI M27-A2 method

[43] = system: Staphylococcus aureus; assay: microbe, parasite or virus in culture; assay type: functional; conditions: CCM 4516/08, 48 h
Description: Antibacterial activity against Staphylococcus aureus CCM 4516/08 after 48 hrs by microdilution broth method

[44] = Retention time of the compound by gradient elution based HPLC method; assay type: physicochemical
[45] = system: Lichtheimia corymbifera; assay: Fungicidal activity against Absidia corymbifera 272 after 48 hrs by modified standard CSLI M27-A2 method; assay type: functional; conditions: Lichtheimia corymbifera, 272, 48 h
[46] = system: Aspergillus fumigatus; assay: Fungicidal activity against Aspergillus fumigatus 231 after 48 hrs by modified standard CSLI M27-A2 method; assay type: functional; conditions: Aspergillus fumigatus, 231, 48 h
[47] = system: Klebsiella pneumoniae; assay: Bactericidal activity against Klebsiella pneumoniae J 14368/08 after 48 hrs by microdilution broth method; assay type: functional; conditions: J 14368/08, 48 h, read-out: MBC>99.9
[48] = system: Klebsiella pneumoniae; assay: microbe, parasite or virus in culture; assay type: functional; conditions: J 14368/08, 48 h
Description: Antibacterial activity against Klebsiella pneumoniae J 14368/08 after 48 hrs by microdilution broth method

[49] = system: Candida tropicalis; assay: Fungicidal activity against Candida tropicalis 156 after 48 hrs by modified standard CSLI M27-A2 method; assay type: functional; conditions: Candida tropicalis, 156, 48 h
[50] = system: Escherichia coli; assay: microbe, parasite or virus in culture; assay type: functional; conditions: CCM 4517, 48 h
Description: Antibacterial activity against Escherichia coli CCM 4517 after 48 hrs by microdilution broth method

[51] = system: Candida tropicalis; assay: microbe, parasite or virus in culture; assay type: functional; conditions: Candida tropicalis, 156, 24 h
Description: Antifungal activity against Candida tropicalis 156 after 24 hrs by modified standard CSLI M27-A2 method

CCCCCCCCCCCCCC[n+]1cccc2cc(O)ccc21.[Br-]
31.2 µM: MFC [1] | MIC [6] | MIC [8] | MIC95 [11] | MIC [24] | MIC [28] | MIC95 [31] | MIC95 [48] | MIC95 [50]
250 µM: MBC [22] | MIC95 [26] | MFC [46]
1.65 min: Retention_time [16]
3.91 µM: MBC [12] | MIC [23] | MIC [29]
0.98 µM: MIC95 [2] | MIC95 [38]
125 µM: MIC95 [13] | MFC [45]
15.6 µM: MFC [5] | MBC [7] | MIC [14] | MFC [20] | MFC [25] | MBC [32] | MIC [33] | MIC [40] | MIC [42] | MFC [49] | MIC [51]
32 µM: IC50 [17]
7.81 µM: MIC [15] | MIC [18] | MIC [19] | MIC95 [21] | MBC [27] | MFC [30] | MIC [34] | MIC95 [36] | MIC [41]
10.05 min: Retention_time [44]
1.95 µM: MIC95 [4] | MIC95 [35] | MIC95 [37] | MIC95 [43]
62.5 µM: MBC [3] | MBC [9] | MIC95 [10] | MIC95 [39] | MBC [47]

CCCCCCCCCC[n+]1cccc2cc(O)ccc21.[Br-]
8.64 min: Retention_time [44]
0.65 min: Retention_time [16]
